Where two headings read alike, the source gives them in different places.
Assays:
MDM2-p53 interaction = MDM2-p53 interaction (Homo sapiens (Human), UniProt Q00987); conditions: for inhibition at 0.001 µM: read-out: MDM2 % inhibition @0.0010; for inhibition at 0.03 µM: read-out: MDM2 % inhibition @0.030; for inhibition at 0.1 µM: read-out: MDM2 % inhibition @0.10
Procedure: MDM2-053 Interaction Using a 96-Well Plate Binding Assay (ELISA)
The ELISA assay was performed in streptavidin coated plates which were preincubated with 200 μl per well of 1 μg ml^−1 biotinylated IP3 peptide. The plates were ready to use for MDM2 binding after washing the plate with PBS.
The bound HRP activity was measured by enhanced chemiluminesence (ECL™, Amersham Biosciences) using the oxidation of the diacylhydrazide substrate, luminol, to generate a quantifiable light signal. The percentage of MDM2 inhibition at a given concentration is calculated as the [1−(RLU detected in the compound treated sample−RLU negative DMSO control)÷(RLU of DMSO positive and negative controls)]×100 or as the (RLU detected in the compound treated sample÷RLU of DMSO controls)×100. The IC50 was calculated using a plot of % MDM2 inhibition vs concentration and is the average of two or three independent experiments.

SJSA-1 cells = test: Protocol B: SJSA-1 CellTiter-Glo luminescent cell viability assay; conditions: for inhibition at 10 µM: SJSA-1, read-out: SJSA1 % inhibition at 10
[1] = read-out: SJSA1 IC50, Protocol B, SJSA-1
[2] = read-out: SJSA1 IC50 (μM) (Protocol B), SJSA-1, Protocol B

Chain of MDM2-p53 interaction (Q00987 whole entry): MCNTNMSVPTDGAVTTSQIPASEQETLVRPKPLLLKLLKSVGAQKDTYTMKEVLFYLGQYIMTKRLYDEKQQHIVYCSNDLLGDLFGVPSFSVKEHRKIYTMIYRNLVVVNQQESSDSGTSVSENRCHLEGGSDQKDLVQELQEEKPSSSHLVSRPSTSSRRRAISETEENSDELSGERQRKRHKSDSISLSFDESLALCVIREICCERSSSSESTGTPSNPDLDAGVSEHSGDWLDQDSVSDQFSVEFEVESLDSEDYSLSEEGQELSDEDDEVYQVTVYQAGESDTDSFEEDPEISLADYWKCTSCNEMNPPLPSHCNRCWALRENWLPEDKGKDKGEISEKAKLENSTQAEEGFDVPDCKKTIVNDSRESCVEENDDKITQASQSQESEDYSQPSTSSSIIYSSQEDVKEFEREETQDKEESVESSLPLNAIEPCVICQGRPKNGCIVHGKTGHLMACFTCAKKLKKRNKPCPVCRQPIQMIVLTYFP

## CCC(O)(c1cc(F)c2c(c1)C(=O)N(Cc1ccc(C#N)cn1)[C@@]2(O[C@H]1CCOC1)c1ccc(Cl)cc1)c1ccn(C)n1 (single isomer, unassigned) [Example 336]
MDM2-p53 interaction
  inhibition at 0.001 µM: 56%
SJSA-1 cells; [1]
  IC50: 0.16 µM

## Cn1cc(C(C)(O)c2cc(F)c3c(c2)C(=O)N(Cc2ncc(F)cc2F)[C@@]3(OCC2(O)CC2)c2ccc(Cl)cc2)cn1 (single isomer, unassigned) [Example 350]
MDM2-p53 interaction; at 0.030 μM
  MDM2 % at stated concentration: 54%@0.030
SJSA-1 cells; [2]
  IC50: 0.51 µM

## Cn1cc(C(C)(O)c2cc(F)c3c(c2)C(=O)N(Cc2ncc(F)cc2F)[C@@]3(OCC2(O)CC2)c2ccc(Cl)cc2)cn1 (single isomer, unassigned) [Example 351]
MDM2-p53 interaction; at 0.10 μM
  MDM2 % at stated concentration: 25%@0.10
SJSA-1 cells; [2]
  IC50: 4.3 µM

## CCC(O)(c1cc(F)c2c(c1)C(=O)N(Cc1ccc(C#N)cn1)[C@@]2(O[C@H]1CCOC1)c1ccc(Cl)cc1)c1cnn(C)c1 (single isomer, unassigned) [Example 358]
MDM2-p53 interaction
  MDM2 % at stated concentration: 74%@0.0010
SJSA-1 cells; [2]
  IC50: 0.039 µM

## CCC(O)(c1cc(F)c2c(c1)C(=O)N(Cc1ccc(C#N)cn1)[C@@]2(O[C@H]1CCOC1)c1ccc(Cl)cc1)c1cnn(C)c1 (single isomer, unassigned) [Example 359]
MDM2-p53 interaction; at 0.10 μM
  MDM2 % at stated concentration: 50%@0.10
SJSA-1 cells; [2]
  IC50: 3.9 µM

## CO[C@]1(c2ccc(Cl)cc2)c2c(F)cc(C(C)(O)C3CCN(C(C)=O)CC3)cc2C(=O)N1Cc1ncc(Cl)cc1CO (single isomer, unassigned) [Example 424]
MDM2-p53 interaction; read-out: MDM2 % inhibition @0.0030
  inhibition at 0.003 µM: 45%
SJSA-1 cells; Homo sapiens, SJSA-1, read-out: SJSA1 IC50 (μM), Protocol B, SJSA-1
  IC50: 0.69 µM

## CCC(O)(c1cc(F)c2c(c1)C(=O)N(Cc1ccc(C#N)nc1)[C@@]2(O[C@H]1CCOC1)c1ccc(Cl)cc1)c1cn(C)cn1 (single isomer, unassigned) [Example 432]
MDM2-p53 interaction
  inhibition at 0.03 µM: 45%
SJSA-1 cells; [1]
  IC50: 6.2 µM

## CCC(O)(c1cc(F)c2c(c1)C(=O)N(Cc1ncc(Cl)cn1)[C@@]2(OCC1(CO)CC1)c1ccc(Cl)cc1)c1cn(C)cn1 (single isomer, unassigned) [Example 477]
MDM2-p53 interaction
  inhibition at 0.001 µM: 86%
SJSA-1 cells; [1]
  IC50: 0.0091 µM

## CCC(O)(c1cc(F)c2c(c1)C(=O)N(Cc1ncc(C#N)cn1)[C@@]2(OC[C@H]1C[C@H](O)C1)c1ccc(Cl)cc1)c1cn(C)cn1 (single isomer, unassigned) [Example 483]
MDM2-p53 interaction
  inhibition at 0.001 µM: 58%
SJSA-1 cells; [1]
  IC50: 0.2 µM

## CCC(O)(c1cc(F)c2c(c1)C(=O)N(Cc1ncc(Cl)cn1)[C@@]2(OCCO)c1ccc(Cl)cc1)[C@H]1CC[C@H](O)CC1 (single isomer, unassigned) [Example 519]
MDM2-p53 interaction
  inhibition at 0.03 µM: 35%
SJSA-1 cells; [1]
  IC50: 1.9 µM

## CCC(O)(CN1CCNCC1)c1cc(F)c2c(c1)C(=O)N(Cc1ncc(Cl)cn1)[C@@]2(OCC1(F)COC1)c1ccc(Cl)cc1 (single isomer, unassigned) [Example 539]
MDM2-p53 interaction
  inhibition at 0.001 µM: 41%
SJSA-1 cells; [1]
  IC50: 0.092 µM

## CCC(O)(c1cc(F)c2c(c1)C(=O)N(Cc1ncc(Cl)cn1)[C@@]2(O[C@H]1CCOC1)c1ccc(Cl)cc1)C1(F)CCNCC1 (single isomer, unassigned) [Example 541]
MDM2-p53 interaction; read-out: MDM2 % inhibition @0.00030
  inhibition at 0.0003 µM: 64%
SJSA-1 cells; [1]
  IC50: 0.014 µM

## COc1ccc(CN2C(=O)c3cc(C(C)(O)c4cnn(C)c4)cc(F)c3[C@]2(OCC2(O)CC2)c2ccc(Cl)cc2)nc1 (stereo partly drawn) [Example 228, (3R)-3-(4-chlorophenyl)-4-fluoro-6-[1-hydroxy-1-(1-methyl-1H-pyrazol-4-yl)ethyl]-3-[(1-hydroxycyclopropyl)methoxy]-2-[(5-methoxypyridin-2-yl)methyl]-2,3-dihydro-1H-isoindol-1-one]
MDM2-p53 interaction; at 0.010 μM
  MDM2 % at stated concentration: 61%@0.010
SJSA-1 cells; [2]
  IC50: 0.21 µM

## CC(C)(O)c1cc(F)c2c(c1)C(=O)N(Cc1ccc(Cl)cn1)[C@@]2(OCC1(CNCCO)CC1)c1ccc(Cl)cc1 [Example 326, (3R)-3-(4-chlorophenyl)-2-[(5-chloropyridin-2-yl)methyl]-4-fluoro-3-[(1-{[(2-hydroxyethyl)amino]methyl}cyclopropyl)methoxy]-6-(2-hydroxypropan-2-yl)-2,3-dihydro-1H-isoindol-1-one]
MDM2-p53 interaction; at 0.030 μM
  MDM2 % at stated concentration: 50%@0.030

## CC(C)(O)c1cc(F)c2c(c1)C(=O)N([C@H](c1ccc(Cl)cn1)C(O)CO)[C@@]2(OCC1(O)CC1)c1ccc(Cl)cc1 (stereo partly drawn) [Example 331, (3R)-3-(4-Chlorophenyl)-2-[(1R)-1-(5-chloropyridin-2-yl)-2,3-dihydroxypropyl]-4-fluoro-3-[(1-hydroxycyclopropyl)methoxy]-6-(2-hydroxypropan-2-yl)-2,3-dihydro-1H-isoindol-1-one]
MDM2-p53 interaction; at 0.030 μM
  MDM2 % at stated concentration: 49%@0.030

## COc1ccc(CN2C(=O)c3cc(C(C)(O)c4cnn(C)c4)cc(F)c3[C@]2(OCC2(O)CC2)c2ccc(Cl)cc2)nc1 (stereo partly drawn) [Example 347, (3R)-3-(4-chlorophenyl)-4-fluoro-6-[1-hydroxy-1-(1-methyl-1H-pyrazol-4-yl)ethyl]-3-[(1-hydroxycyclopropyl)methoxy]-2-[(5-methoxypyridin-2-yl)methyl]-2,3-dihydro-1H-isoindol-1-one]
MDM2-p53 interaction; at 0.10 μM
  MDM2 % at stated concentration: 63%@0.10
SJSA-1 cells; [2]
  IC50: 1.7 µM

## Cn1cc(C(O)(c2cc(F)c3c(c2)C(=O)N(Cc2ccc(C#N)cn2)[C@@]3(O[C@H]2CCOC2)c2ccc(Cl)cc2)C(F)(F)F)cn1 (stereo partly drawn) [Example 371, 6-{[(1R)-1-(4-chlorophenyl)-7-fluoro-3-oxo-1-[(3S)-oxolan-3-yloxy]-5-[2,2,2-trifluoro-1-hydroxy-1-(1-methyl-1H-pyrazol-4-yl)ethyl]-2,3-dihydro-1H-isoindol-2-yl]methyl}pyridine-3-carbonitrile]
MDM2-p53 interaction
  inhibition at 0.03 µM: 43%

## CCC(O)(c1cc(F)c2c(c1)C(=O)N(Cc1ccc(C#N)cn1)[C@@]2(OCCOC)c1ccc(Cl)cc1)c1cn(C)cn1 (stereo partly drawn) [Example 429, 6-{[(1R)-1-(4-chlorophenyl)-7-fluoro-5-[1-hydroxy-1-(1-methyl-1H-imidazol-4-yl)propyl]-1-(2-methoxyethoxy)-3-oxo-2,3-dihydro-1H-isoindol-2-yl]methyl}pyridine-3-carbonitrile]
MDM2-p53 interaction
  inhibition at 0.1 µM: 65%

## CO[C@]1(c2ccc(Cl)cc2)c2c(F)cc(C(C)(O)c3cnn(C4CN(C(=O)OC(C)(C)C)C4)c3)cc2C(=O)N1Cc1ccc(Cl)cn1 (stereo partly drawn) [Example 457, tert-Butyl 3-(4-{1-[(1R)-1-(4-chlorophenyl)-2-[(5-chloropyridin-2-yl)methyl]-7-fluoro-1-methoxy-3-oxo-2,3-dihydro-1H-isoindol-5-yl]-1-hydroxyethyl}-1H-pyrazol-1-yl)azetidine-1-carboxylate]
MDM2-p53 interaction; read-out: MDM2 % inhibition @0.30
  inhibition at 0.3 µM: 53%

## CCC(O)(c1cc(F)c2c(c1)C(=O)N(Cc1ncc(C#N)cn1)[C@@]2(OCC1(C#N)CC1)c1ccc(Cl)cc1)c1cn(C)cn1 (stereo partly drawn) [Example 463, 2-{[(1R)-1-(4-chlorophenyl)-1-[(1-cyanocyclopropyl)methoxy]-7-fluoro-5-[1-hydroxy-1-(1-methyl-1H-imidazol-4-yl)propyl]-3-oxo-2,3-dihydro-1H-isoindol-2-yl]methyl}pyrimidine-5-carbonitrile]
MDM2-p53 interaction
  inhibition at 0.1 µM: 73%

## CCCC(O)(c1cc(F)c2c(c1)C(=O)N(Cc1ccc(C#N)cn1)[C@@]2(O[C@H]1CCOC1)c1ccc(Cl)cc1)c1cn(C)cn1 (stereo partly drawn) [Example 473, 6-{[(1R)-1-(4-chlorophenyl)-7-fluoro-5-[1-hydroxy-1-(1-methyl-1H-imidazol-4-yl)butyl]-3-oxo-1-[(3S)-oxolan-3-yloxy]-2,3-dihydro-1H-isoindol-2-yl]methyl}pyridine-3-carbonitrile]
MDM2-p53 interaction
  inhibition at 0.1 µM: 44%

## CCC(O)(c1cc(F)c2c(c1)C(=O)N(Cc1ncc(Cl)cn1)[C@@]2(OCC1(C(N)=O)CC1)c1ccc(Cl)cc1)c1cn(C)cn1 (stereo partly drawn) [Example 485, 1-({[(1R)-1-(4-chlorophenyl)-2-[(5-chloropyrimidin-2-yl)methyl]-7-fluoro-5-[1-hydroxy-1-(1-methyl-1H-imidazol-4-yl)propyl]-3-oxo-2,3-dihydro-1H-isoindol-1-yl]oxy}methyl)cyclopropane-1-carboxamide]
MDM2-p53 interaction
  inhibition at 0.1 µM: 58%
SJSA-1 cells; [1]
  IC50: 4.2 µM

## CCC(O)(c1cc(F)c2c(c1)C(=O)N(Cc1ncc(Cl)cc1O)[C@@]2(O[C@H]1C[C@@H](O)C1)c1ccc(Cl)cc1)c1cn(C)cn1 (stereo partly drawn) [Example 488, (3R)-2-[(5-chloro-3-hydroxypyridin-2-yl)methyl]-3-(4-chlorophenyl)-4-fluoro-6-[1-hydroxy-1-(1-methyl-1H-imidazol-4-yl)propyl]-3-[cis-3-hydroxycyclobutoxy]-2,3-dihydro-1H-isoindol-1-one]
MDM2-p53 interaction
  inhibition at 0.1 µM: 56%

## CCC(O)(c1cc(F)c2c(c1)C(=O)N(Cc1ccc(C#N)cn1)[C@@]2(OC[C@@H](C)O)c1ccc(Cl)cc1)C1(F)CCOCC1 (stereo partly drawn) [Example 498, 6-{[(1R)-1-(4-chlorophenyl)-7-fluoro-5-[1-(4-fluorooxan-4-yl)-1-hydroxypropyl]-1-[(2R)-2-hydroxypropoxy]-3-oxo-2,3-dihydro-1H-isoindol-2-yl]methyl}pyridine-3-carbonitrile]
MDM2-p53 interaction
  inhibition at 0.1 µM: 32%
SJSA-1 cells; Homo sapiens
  inhibition at 10 µM: 96%

## CCC(O)(c1cc(F)c2c(c1)C(=O)N(Cc1ccc(C#N)cn1)[C@@]2(OCCO)c1ccc(Cl)cc1)C1(F)CCOCC1 (stereo partly drawn) [Example 500, 6-{[(1R)-1-(4-chlorophenyl)-7-fluoro-5-[1-(4-fluorooxan-4-yl)-1-hydroxypropyl]-1-(2-hydroxyethoxy)-3-oxo-2,3-dihydro-1H-isoindol-2-yl]methyl}pyridine-3-carbonitrile]
MDM2-p53 interaction
  inhibition at 0.1 µM: 21%
SJSA-1 cells; Homo sapiens
  inhibition at 10 µM: 16%

## CC[C@](O)(c1cc(F)c2c(c1)C(=O)N(Cc1ncc(Cl)cn1)[C@@]2(O[C@H]1CCOC1)c1ccc(Cl)cc1)C1CCN(C)CC1 [Example 567, (3R)-3-(4-chlorophenyl)-2-[(5-chloropyrimidin-2-yl)methyl]-4-fluoro-6-[(1R)-1-hydroxy-1-(1-methylpiperidin-4-yl)propyl]-3-[(3S)-oxolan-3-yloxy]-2,3-dihydro-1H-isoindol-1-one]
MDM2-p53 interaction
  inhibition at 0.1 µM: 57%

Source: US11236047B2 (ASTEX THERAPEUTICS LIMITED, priority 2017, dated 2022)
